Broadly, the Kd is the equilibrium constant for the complex coming apart.

“Also recorded” adds a separate entry of the source.

Data on one molecule can be found in patent publication US12240870B2, “Sequencing method for CAR T cell therapy” (Purdue Research Foundation, priority 2018, dated 2025).

Series [1] concerns the target T1, FRβ (CHO-β) (Homo sapiens, UniProt P14207).
T1 construct: expressed in transfected cells; host or cells: CHO (Chinese hamster ovary) cells
Put plainly: 3H-EC17 cell-based radioligand binding assay on CHO-β cells. The following applies: 2 h at 37° C. The method, then: (§1) FIG. 10, Panel A: Kd values of ^3H-EC17 uptake by FR+ target cells after a 2 hour incubation at 37° C. (calculated from the numbers of molecules bound per cell). Panel B: Kd value of ^3H^−EC17 uptake by E2-CAR-T cells (˜24% EGFRt+, ˜95:5 CD8/CD4 ratio) after a 2 hour incubation at room temperate (calculated from total cell-associated radioactivity, DPM).
The bispecific affinities of EC17 CAM (a CAM is equivalent to a “bridge” or the “compound” in this application) were assessed using ^3H-EC17 in cell-based radioligand binding assays. […] The whole cell lysates were quantitated for the level of radioactivity and cellular protein content by standard Pierce BCA protein assay. The number of ^3H-EC17 molecules bound per cell was calculated to determine the dissociation constants (Kd) for FRα (KB) and FRβ (CHO-β) respectively (FIG. 10).
(§2) The EC17 has already been tested in the clinic for immunotherapy and optical imaging purposes. To directly quantify its bispecific binding affinities, ^3H-EC17 was synthesized and radioligand binding assays were carried out on KB and CHO-β cell lines representing FRα+ and FRβ+ target cells, respectively, and on unsorted EGFRt CAR-T cells representing the effector cells.

Series [2] deals with unsorted E2-CAR-T cells. Put plainly: 3H-EC17 uptake by E2-CAR-T cells. The following applies: unsorted E2-CAR-T cells (~24% EGFRt+, ~95:5 CD8/CD4), 2 hour at room temperature; read-out: Kd of 3H-EC17 binding to E2-CAR-T cells. Further details: species or system human. As to the method: as §1, §2
Series [3] relates to THP1-FRβ xenografts. Put plainly: THP1-FRβ AML intravenous xenograft, E2 CAR-T cells plus EC17. It is filed as in vivo, NSG mice. The method, then: Panel A: Schematic diagrams to show dose scheduling of EC17 plus unsorted EGFRt CAR-T cells (˜6 million, day 0) in NSG mice with 1-day-old intravenous THP1-FRβ xenografts. Starting 3 days after CAR-T cell injection, EC17 was dosed in 3 different ways: EC17 SIW 500 nmol/kg ([…] on days 3, 10, 17, 24, 31, and 38), EC17 TIW 5/50/500 nmol/kg (3 repeats of 5/50/500 nmol/kg on Monday/Wednesday/Friday followed by a 9-day break, i.e. on days 3/5/7, 17/19/21 and 31/33/35), or EC17 M/Th/M_dose escalation on Monday/Thursday/Monday (3 escalation cycles at 5/10/100 nmol/kg in Cycle 1, 5/30/300 nmol/kg in Cycle 2, and 5/50/500 nmol/kg in Cycle 3, i.e. on days 3/6/10, 17/20/24, and 31/34/38). Panel B: Measurements of change in body weight (n=5). Panel C: Circulating CAR-T cells as human CD3ε+ EGFRt+ events found per 100 μL of mouse whole blood on a logarithmic scale on day 31. Panel D: Left bar graph: circulating tumor cells (GFP+) per 100 μL of whole blood in all cohorts measured at the end of study (day 39); Middle bar graph: THP1-FRβ infiltrated liver weights representing liver metastatic burden; Right bar graph: total tumor weights of all non-liver macrometastases. Panel E: Flow cytometric analysis of T-cell exhaustion markers, PD1, LAG3, TIM3, on preinfusion CAR-T cell product (triple-negative) and tumor-infitrating CAR-T cells isolated from liver metastases. A cardinal feature of fully exhausted T cells is co-expression of multiple inhibitory receptor markers (i.e. triple-positive).
One objective of this E2-CAR T-cell study was to test EC17/E2 CAR-T cell activity and related toxicity (e.g. sCRS) using multiple dosing regimens starting 3 days after CAR-T infusion. Three different EC17 dosing regimens include (a) once-a-week (SIW) at 500 nmol/kg, (b) “TIW-like” at 5, 50, and 500 nmol/kg on Monday/Wednesday/Friday with 9-day intervals, and (c) “TIW-like” at […] on Monday/Thursday/Monday with 7-day intervals.
THP-1-FRβ AML tumor cells were grown in folate-deficient RPMI 1640 with 5-10% FBS at 37° C. in a 5% CO2 humidified atmosphere. THP-1-FRβ tumor cells in serum-free folate-deficient RPMI1640 medium were i.v. injected at 5×10^6 cells per animal.
Anti-FITC E2 scFv-CAR T cells were frozen in a T-cell freezing medium. Upon arrival, vials of frozen CAR-T cells were immediately stored at −80° C. The CAR-T cells were quickly thawed at 37° C., washed twice with CAR-T cell culture medium, and used for animal injection at 6 million viable EGFRt+ E2 CAR-T cells (CD4/CD8 at ˜1:1) per animal. A small aliquot was taken on the day infusion for flow cytometric analysis of E2-CAR T-cell phenotypes.
EC17 and bis-EDA-FITC dosing solutions were prepared when dosing began by weighing appropriate amounts of each compound, reconstituting in PBS, pH 7.4, sterile filtering the drug solution through a 0.22 μm PVDF syringe filter, and freezing aliquots for each day of dosing at −20° C.
All EC17 doses were given towards the end of day (3-4 PM) to allow potential CRS (cytokine release syndrome) to develop overnight. In the following morning, animals were scored according to a CRS grading system (see below).
Daily body weight measurement on the days after EC17 dose is required. Attention was given to gross animal morphology and behavior. Euthanasia was performed if mice lose a lot of weight in a short duration or when mice are approaching moribund conditions per CRS grading system or neurotoxicity.
Whole blood cell analysis: Plasma was removed from predetermined volumes of whole EDTA treated blood and RBCs were lysed with RBC lysis solution. […]

T1 sequence (P14207 17-230): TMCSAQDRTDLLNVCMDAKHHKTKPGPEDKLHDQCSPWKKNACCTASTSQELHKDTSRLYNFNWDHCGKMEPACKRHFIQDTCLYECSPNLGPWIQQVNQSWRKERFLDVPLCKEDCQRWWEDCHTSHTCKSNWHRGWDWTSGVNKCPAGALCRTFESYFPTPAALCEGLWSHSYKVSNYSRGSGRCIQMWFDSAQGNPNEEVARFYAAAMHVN

Turning to `Nc1nc2ncc(CNc3ccc(C(=O)N[C@@H](CCC(=O)NCCNC(=S)Nc4ccc(-c5c6ccc(=O)cc-6oc6cc(O)ccc56)c(C(=O)O)c4)C(=O)O)cc3)nc2c(=O)[nH]1` [EC17, FA-(γ)-ethylenediamine-FITC], the Kd in series [1] is 0.0008 µM; in series [2], approximately 0.13 µM. Besides, the non-liver macrometastases entry in series [3] (EC17 SIW 500 nmol/kg) and in series [3] (EC17 TIW 5/50/500 nmol/kg on/off) was “successfully controlled non-liver macrometastases” throughout. The CRS grade in series [3] (EC17 SIW 500 nmol/kg (Cohort 3)) is given as 1-2. For the same molecule, the “overall anti-tumor activity / THP1-FRβ tumor burden, comparison of regimens” value in series [3] (EC17 TIW 5/50/500 nmol/kg on/off (Cohort 4)) was “best anti-tumor activity among the three different EC17 dose schedules; also recorded: trended to be the best regimen for reducing overall THP1-FRβ tumor burden”. Moreover, the “circulating THP1-FRβ tumor cells (GFP+) per 100 μL whole blood” value in series [3] (all three EC17 dosing regimens, day 39) was “significant reduction in circulating THP1 cell burden; also recorded: effectively reduced circulating THP1-FRβ tumor cells in the blood”. Further, the “severe CRS (grades ≥3)” value in series [3] (any EC17 treated cohort (SIW, TIW, M/Th/M)) is “no severe CRS”. Further, the body weight loss entry in series [3] (~6 million E2 CAR-T + EC17 SIW 500 nmol/kg (Cohort 3)) is “EC17 dose-dependent body weight loss after each EC17 dose; also recorded: some body weight loss”; in series [3] (~6 million E2 CAR-T + EC17 TIW 5/50/500 nmol/kg M/W/F, 9-day break (Cohort 4)) it was “mildest body weight loss among three treatment groups; also recorded: least body weight loss”.
